Values after ≈ are worked out from the molar mass of the structure shown. Where two headings read alike, the source gives them in different places.
Legend:
[1] = system: P. falciparum gametocytes; assay: Gametocyte female gametogenesis capacity assay (Pfs25 AlphaLISA); assay type: cell-based; conditions: Plasmodium falciparum; 72 hours incubation, Table 3; read-out: Gametocyte gametogenesis capacity (Pfs25) IC50
Description: To monitor compound effects on the ability of a gametocyte to form a female gamete, day 11 (stage IV) gametocytes were seeded at a density of 4×10^5 gametocytes per well in a V-bottom plate in 50 μl culture medium. 50 μl of diluted compound was added to the gametocytes (0.1% DMSO final concentration) and plates were incubated for 72 hours at 37° C., 98% humidity, 93% N2, 4% CO2 and 3% O2. Subsequently, gametogenesis was induced by adding xanthurenic acid to a final concentration of 40 μM and plates were incubated for 16 hours at 20° C. Gametes were detected in a homogeneous proximity immunoassay on basis of Pfs25 expression by use of AlphaLISA technology (Perkin Elmer). All steps were performed at 20° C. Gametes were washed twice with PBS, lysed for 15 min in 10 μl 10 mM Tris pH 8.0/1% laurylsarcosyl/1 mM phenylmethanesulfonyl fluoride and combined with 10 μl 5 nM biotinylated mouse anti-Pfs25 monoclonal antibody 32F6244 in a white 384 well optiplate (Perkin Elmer). After 1 hour incubation 15 μl of 33 μg/ml acceptorbeads coated with mouse anti-Pfs25 monoclonal antibody 32F81 were added. After 1 hour incubation, 15 μl 33 μg/ml Streptavidin-conjugated donorbeads were added. Finally, after 1 hour incubation luminescence signals were monitored at the 615 nm emission wavelength following excitation at 680 nm using a fluorometer (Biotek Synergy 2). All compounds were tested in duplicate (24 hr) or triplicate (1 and 72 hr). Controls included MIN (0.1 μM epoxomicin) and MAX (0.1% DMSO). Data were analyzed by logistic regression using the formula: Y=Bottom+(Top−Bottom)/(1+10̂((Log IC50−X)*HillSlope)) and a least squares method to find the best fit.

[2] = system: Plasmodium falciparum NF54 parasites; assay: P. falciparum asexual blood stage replication assay (SYBR Green); assay type: cell-based; conditions: NF54, 10% human serum, 72 incubation
Description: Compounds were tested on their ability to inhibit replication of the human malaria parasite Plasmodium falciparum. To this end, Plasmodium falciparum NF54 parasites were cultured in RPMI1640 medium supplemented with 367 μM hypoxanthine, 25 mM HEPES, 25 mM sodiumbicarbonate and 10% human type A serum in an automated large-scale culture system as described before (Transactions of the Royal Society of Tropical Medicine and Hygiene, 1982. 76: p. 812-818). Compounds were diluted in DMSO and subsequently in culture medium to reach a DMSO concentration of 0.2%. 50 μl of diluted compound was transferred to a black 96 well plate. A culture of P. falciparum strain NF54 malaria parasites was diluted to a parasitaemia of 0.5% and a hematocrit of 3%. 50 μl of this diluted culture was added to each well in the 96 well plate._The outermost wells of the plate were filled with sterile water to prevent evaporation. The established antimalarial dihydroartemisinin (DHA) in DMSO acted as a positive control (MIN signal), and 0.1% DMSO acted as a negative control (MAX signal). The plates were incubated for 72 at 37° C., 3% 02, 5% CO2, 93% N2. Changes in parasite replication relative to the controls were monitored using the DNA-marker SYBR Green as described previously (Antimicrob Agents Chemother 48:1803-6). Data were analyzed by logistic regression using the formula: Y=Bottom+(Top-Bottom)/(1+10̂((Log IC50−X)*HillSlope)) and a least squares method to find the best fit.
Using similar methods, IC50 values were determined for a variety of inverted pantothenamides, as listed in table 1 (see section: ‘Detailed description of the invention’)

[3] = system: P. falciparum gametocytes; assay: microbe, parasite or virus in culture; assay type: cell-based, Plasmodium falciparum; conditions: Plasmodium falciparum; 72 hour incubation; read-out: Gametocyte viability (pLDH) IC50
Description: Compounds were tested for their ability to affect the viability of gametocytes, the sexually committed blood stages of P. falciparum that underlie transmission to the mosquito vector. To this end, two different assays were performed. The first assay monitored pLDH activity as a measure of viability of gametocytes (J Antimicrob Chemother. 2013 September; 68(9):2048-58). The second assay monitored the ability of gametocytes to form a female gamete by detection of the gamete-specific marker Pfs25. Plasmodium falciparum NF54 parasites were cultured in RPMI1640 medium supplemented with 367 μM hypoxanthine, 25 mM HEPES, 25 mM sodiumbicarbonate and 10% human type A serum in an automated large-scale culture system as described before (Transactions of the Royal Society of Tropical Medicine and Hygiene, 1982. 76: p. 812-818). Cultures were treated with 50 mM N-acetyl-D-glucosamine from day 4 till day 9 to kill asexual parasites. On day 11 gametocytes were isolated by discontinuous 63% Percoll gradient centrifugation. Compounds were diluted in DMSO and subsequently in culture medium to reach a DMSO concentration of 0.2%. To measure the effect of compounds of pLDH activity, gametocytes were seeded at a density of 3.5×10^4 gametocytes per well in a black 384 well plate in 30 μl of culture medium, and 30 μl of diluted compound was added. Following a 72 hour incubation at 37° C., 98% humidity, 93% N2, 4% CO2 and 3% O2, gametocyte viability was measured by a modified plasmodium lactate dehydrogenase assay by using resazurin as a substrate as previously described (Nature, 2013. 504(7479): p. 248-53). Assays were performed in quadruplicate (two different plates with two different gametocyte batches) and all plates included controls MIN (1 μM DHA), MAX (0.1% DMSO) and a serial dilution of reference compound dihydroartemisinin (DHA).

Streptococcus pyogenes = assay: Bacterial growth assay and MIC determination, S. pyogenes; assay type: cell-based
Description: (§1) Strains of Escherichia coli, Staphylococcus aureus and Staphylococcus epidermidis, were grown overnight in 1% Bacto tryptone medium (BD, Sparks, Md.). Streptococcus pyogenes was grown overnight in Bacto Todd Hewitt Broth medium (BD, Sparks, Md.). Cultures were then diluted 1:1,000 in fresh assay medium supplemented with or without 20% fetal bovine serum (FBS; HyClone, Celbio, Logan, Utah) and added to 96-well sterile enzyme-linked immunosorbent assay (ELISA) plates (100 μl per well). The compounds to be tested were diluted in the medium without serum and added to the bacteria (100 μl per well). Plates were incubated at 37° C., and bacterial growth was monitored over time by reading the optical density at 490 nm using a microplate reader (model 450; Bio-Rad Laboratories Inc., Hercules, Calif.). Streptococcus pneumoniae strains were grown to mid-log phase (OD620 of 0.3) and stored in 15% glycerol at […] till further use. Minimal inhibitory concentration (MIC) of antibiotics was determined according to standard procedures. Bacteria were diluted 10-fold in Mueller-Hinton medium (BD, Sparks, Md.) and added to 96-well sterile ELISA plates (150 μl per well). The compounds to be tested were diluted in the medium without serum and added to the bacteria (150 μl per well). Plates were incubated overnight at 37° C. in 5% CO2. The MIC was defined as the lowest concentration of compound at which no growth was visible with the naked eye.

Escherichia coli = assay: Bacterial growth assay and MIC determination, E. coli; assay type: cell-based; conditions: serum −
Description: as §1

[4] = system: Staphylococcus epidermidis; assay: Bacterial growth assay and MIC determination, S. epidermidis; assay type: cell-based
Description: as §1

Streptococcus pneumoniae = assay: MIC determination, S. pneumoniae; assay type: cell-based; conditions: S. pneumoniae; for MIC: Streptococcus pneumoniae, serum −, read-out: MIC
Description: Streptococcus pneumoniae strains were grown to mid-log phase (OD620 of 0.3) and stored in 15% glycerol at […] till further use. Minimal inhibitory concentration (MIC) of antibiotics was determined according to standard procedures. Bacteria were diluted 10-fold in Mueller-Hinton medium (BD, Sparks, Md.) and added to 96-well sterile ELISA plates (150 μl per well). The compounds to be tested were diluted in the medium without serum and added to the bacteria (150 μl per well). Plates were incubated overnight at 37° C. in 5% CO2. The MIC was defined as the lowest concentration of compound at which no growth was visible with the naked eye.

Staphylococcus aureus = assay: Bacterial growth assay and MIC determination, S. aureus; assay type: cell-based; conditions: for antibiotic activity when tested in the presence of serum: 10% serum
Description: as §1

[5] = system: S. aureus (SA), S. epidermidis (SE), S. pyogenes (SP), S. pneumoniae (SPn); assay: MIC for most sensitive bacterial species (panel); assay type: cell-based; conditions: Table 1, no species named, read-out: MIC (μg/ml) for most sensitive bacterial species
Description: as §1

[6] = Streptococcus pyogenes, Table 1, most sensitive species S. pyogenes (SP), read-out: MIC (μg/ml) for most sensitive bacterial species
[7] = Escherichia coli, read-out: MIC
[8] = Staphylococcus epidermidis, S. epidermidis, serum −, read-out: MIC
[9] = Streptococcus pyogenes, S. pyogenes, serum −, read-out: MIC
[10] = Staphylococcus aureus, S. aureus, serum + (10% serum), read-out: MIC
[11] = Staphylococcus aureus, S. aureus, serum −, read-out: MIC
[12] = Staphylococcus aureus, Table 1, most sensitive species S. aureus (SA), read-out: MIC (μg/ml) for most sensitive bacterial species
[13] = Staphylococcus epidermidis, Table 1, most sensitive species S. epidermidis (SE), read-out: MIC (μg/ml) for most sensitive bacterial species

CC(C)(CO)[C@@H](O)C(=O)NCCNC(=O)CCc1ccsc1 [CXP18.6-046]
IC50 [1]: 401 nM | IC50 [2]: 0.057 µM | IC50 [3]: > 10000 nM | MIC (Streptococcus pyogenes; [6]): 32 µg/mL (≈ 97.4 µM)

CCCCCCCC(=O)NCCNC(=O)[C@H](O)C(C)(C)CO [CXP18.6-012]
MIC (Escherichia coli; [7]): > 256 µg/mL | MIC [4, 8]: 16 µg/mL (≈ 50.6 µM) | IC50 [2]: 0.34 µM | activity of inverted pantothenamide compared to the parent compound (Streptococcus pneumoniae): loss of activity | MIC (Streptococcus pneumoniae): > 32 µg/mL | MIC (Streptococcus pyogenes; [9]): 32 µg/mL (≈ 101 µM) | antibiotic activity when tested in the presence of serum (Staphylococcus aureus; S. aureus): retained activity | MIC (Staphylococcus aureus; [10]): 4 µg/mL | MIC (Staphylococcus aureus; [11]): 1 µg/mL (≈ 3.16 µM) | MIC (Staphylococcus aureus; [12]): 1 µg/mL (≈ 3.16 µM)

CCCCCCCNC(=O)CCNC(=O)[C@H](O)C(C)(C)CO [Compound N7-Pan, N-heptylpantothenamide, reference compound]
MIC (Escherichia coli; [7]): 128 µg/mL (≈ 404 µM) | MIC [4, 8]: 0.5 µg/mL (≈ 1.58 µM) | MIC (Streptococcus pneumoniae): 2 µg/mL (≈ 6.32 µM) | MIC (Streptococcus pyogenes; [9]): 2 µg/mL (≈ 6.32 µM) | MIC (Staphylococcus aureus; S. aureus, serum + (10% serum)): >256 µg/mL | MIC (Staphylococcus aureus; [10]): > 256 µg/mL | MIC (Staphylococcus aureus; [11]): 0.5 µg/mL (≈ 1.58 µM)

CC(C)(CO)[C@@H](O)C(=O)NCCNC(=O)CCc1cccs1 [CXP18.6-047]
IC50 [1]: 168 nM | IC50 [2]: 0.1 µM | IC50 [3]: > 10000 nM | MIC (Streptococcus pyogenes; [6]): 8 µg/mL (≈ 24.4 µM)

CCCCCCCCCNC(=O)CCNC(=O)[C@H](O)C(C)(C)CO [Compound N9-Pan, reference compound]
MIC (Escherichia coli): >256 µg/mL | MIC ([4]; S. epidermidis, serum −): 0.25 µg/mL (≈ 0.726 µM) | MIC (Streptococcus pyogenes; S. pyogenes, serum −): 16 µg/mL (≈ 46.4 µM) | MIC (Staphylococcus aureus; S. aureus, serum + (10% serum)): >256 µg/mL | MIC (Staphylococcus aureus; S. aureus, serum −): 0.5 µg/mL (≈ 1.45 µM)

Cc1ccc(CCC(=O)NCCNC(=O)[C@H](O)C(C)(C)CO)c(F)c1 [CXP18.6-064]
MIC [4, 13]: 2 µg/mL (≈ 5.64 µM) | IC50 [1]: 17 nM | IC50 [2]: 0.042 µM | IC50 [3]: 42 nM

CCCCCCCCCC(=O)NCCNC(=O)[C@H](O)C(C)(C)CO [CXP18.6-014]
MIC (Escherichia coli; [7]): > 256 µg/mL | MIC [4, 8]: 1 µg/mL (≈ 2.9 µM) | MIC [4, 13]: 1 µg/mL (≈ 2.9 µM) | IC50 [2]: 7.5 µM | MIC (Streptococcus pneumoniae): > 32 µg/mL | MIC (Streptococcus pyogenes; [9]): 32 µg/mL (≈ 92.9 µM) | antibiotic activity when tested in the presence of serum (Staphylococcus aureus; S. aureus): retained activity | MIC (Staphylococcus aureus; [10]): 1 µg/mL | MIC (Staphylococcus aureus; [11]): 1 µg/mL (≈ 2.9 µM) | MIC (Staphylococcus aureus; [12]): 1 µg/mL (≈ 2.9 µM)

C[C@@H](CNC(=O)[C@H](O)C(C)(C)CO)NC(=O)CCc1ccccc1F [MMV689258]
IC50 [2]: 0.004 µM | MIC ([5]; tested for SA, SE, SP and SPn): > 32 µg/mL

CC(C)(CO)[C@@H](O)C(=O)NCCNC(=O)CCc1ccc(Cl)cc1 [CXP18.6-028]
IC50 [2]: 0.19 µM | MIC ([5]; tested for SA, SE, SP and SPn): > 32 µg/mL

CC(C)(CO)[C@@H](O)C(=O)NCCNC(=O)CCc1ccccc1Cl [CXP18.6-027]
IC50 [2]: 0.58 µM | MIC ([5]; tested for SA, SE, SP and SPn): > 32 µg/mL

CC(C)(C)c1ccc(CCC(=O)NCCNC(=O)[C@H](O)C(C)(C)CO)cc1 [CXP18.6-043]
IC50 [2]: 0.15 µM | MIC ([5]; tested for SA, SE, SP and SPn): > 32 µg/mL

CC(C)(CO)[C@@H](O)C(=O)NCCNC(=O)CCc1ccc(C(F)(F)F)cc1 [CXP18.6-042]
IC50 [2]: 0.21 µM | MIC ([5]; tested for SA, SE, SP and SPn): > 32 µg/mL

C[C@H](CNC(=O)[C@H](O)C(C)(C)CO)NC(=O)CCc1ccccc1F [MMV689260]
IC50 [2]: 0.21 µM | MIC ([5]; tested for SA, SE, SP and SPn): > 32 µg/mL

CC(C)(CO)[C@@H](O)C(=O)NCCCNC(=O)Cc1ccccc1 [CXP18.6-009]
IC50 [2]: 9.2 µM | MIC ([5]; tested for SA, SE, SP and SPn): > 32 µg/mL

CCC(=O)NCCNC(=O)[C@H](O)C(C)(C)CO [CXP14.18-019]
IC50 [2]: 0.17 µM | MIC ([5]; Streptococcus pneumoniae, marked *: not tested for S. pneumoniae): > 32 µg/mL
